Reference: patent US11723908B2, “Quinazoline derivatives as antitumor agents” (SUZHOU ZANRONG PHARMA LIMITED, priority 2018, dated 2023)

What was measured:
HER2 = HER2 (Homo sapiens (Human), UniProt P04626); test: BT474 cellular assay (HER2 inhibition), phospho-HER2 ELISA; format: cell-based; details: inhibition of phosphor HER2, BT474 cells, 2 hours compound incubation
Procedure: Assay a) BT474 Cellular Assay (HER2 Inhibition) Inhibition of phosphor HER2 was determined by enzyme-linked immunosorbent assay (ELISA) in BT474 cells. BT474 cell line was purchased from [NT] number HTB-20). Human Phospho-ErbB2 ELISA kit was purchased from R&D systems (catalog number DYC1768). Day 1: When the cells reach 70-90% confluence, cells were trypsinized and re-suspended. 5000 cells per well were seeded to a 384-well plate. The plate was incubated at 37° C. with 5% CO2 for 24 hours. ELISA plate was coated with 2 μg/ml capture antibody, which was incubated at 4° C. overnight. Day 2: 25 nl compounds was dosed by Echo from source plate and the 384-well plate was incubated at 37° C. for 2 hours. 30 μl lysis buffer was added to each well and the 384-well plate was shaken softly at 4° C. for 30 minutes. The ELISA plate was washed, blocked and incubated at room temperature for 1-2 hours. The blocked ELISA plate was washed and 20 μl cell lysate was transferred from the 384-well plate to the ELISA plate, which was incubated overnight at 4° C. Day 3: The ELISA plate was washed 3 times. 25 μl/well detection antibody was added (diluted 1 by 2000 in 1% BSA in PBS). After 2 hours of incubation with detection antibody, the ELISA plate was washed 3 times, 25 μl/well TMB substrate was added and incubated for 10-15 minutes before stop solution was added. Absorbance at 450 nm and 570 nm was read within 30 minutes after adding the stop solution. […] The IC50 results are provided in Table 1 for some exemplary compounds.

wt-EGFR = wt-EGFR (Homo sapiens (Human), UniProt P00533); test: NCI H838 cellular assay (wt-EGFR inhibition), phospho-EGFR ELISA; format: cell-based; details: inhibition of phosphor wt-EGFR, NCI H838 cells, EGF 100 ng/ml
Procedure: Assay b) NCI H838 Cellular Assay (Wt-EGFR Inhibition) Inhibition of phosphor wt-EGFR was determined by enzyme-linked immunosorbent assay (ELISA) in NCI H838 cells (ATCC, catalog number CRL-5844). Human Phospho-EGFR DuoSet IC ELISA kit was purchased from R&D systems (catalog number DYC1095). Day 1: When the cells reach 70-90% confluence, cells were trypsinized and re-suspended. 5000 cells per well were seeded to a 384-well plate. The plate was incubated at 37° C. with 5% CO2 for 24 hours. Day 2: Cell culture medium was replaced with 40 μL FBS-Free RPMI1640. After 2 hours of starvation, the 384-well plate was dosed with 40 nL of compounds by Echo from source plate and the 384-well plate was incubated at 37° C. with 5% CO2 for 2 hours. After 2 hours of incubation with compounds, EGF (final concentration at 100 ng/ml) was added to the plate which was incubated at 37° C. with 5% CO2 for 5-10 minutes. Medium was discarded from the plate and 30 μl/well lysis buffer was added to the plate which was incubated at 4° C. for 10 minutes. The cell lysates can be stored at −80° C. in cell plates but must be thawed at room temperature for at least 30 minutes prior to use and continuing the assay. ELISA plate was coated by diluting capture antibody to 4 μg/ml with PBS, and 25 μl/well was dispensed to 384 well UltraCruz® ELISA Plate, which was incubated at 4° C. overnight. Day 3: After the plates were washed three times with 100 μl/well of wash buffer, the plates were blocked by adding 75 μl of Block Buffer to each well and incubated at room temperature for 3 hours. After the plates were washed three times with 100 μl/well of wash buffer, 20 μl cell lysate was transferred to the blocked ELISA plate which was incubated for 2 hours at room temperature. After the plates were washed three times with 100 μl/well of wash buffer, 25 μl/well detection antibody (dilute 1 in 900 in assay buffer) was added the plate which was incubated for 2 hours, protected from light. After washed three times, 25 μl/well TMB substrate was added to the ELISA plate which was incubated for about 10-15 min, protected from light before addition of 25 μl/well stop solution. Absorbance was read at 450 nm and 570 nm within 30 minutes.

P-glycoprotein (Pgp) = P-glycoprotein (Pgp) (Homo sapiens (Human), UniProt P08183); test: MDCK-MDR1 Pgp assessment; format: in vitro ADME; details: for efflux ratio at 2 h, 1 μM: dog, MDCK-MDR1 cells, 37° C. for 2 hours, read-out: PgpER; for Pgp substrate status: conclusion from Table 3
Procedure: Assay c): MDCK-MDR1 Pgp Assessment
Efflux transport mediated by P-glycoprotein (Pgp) was assessed by MDCK-MDR1 cells. The final concentrations of test compounds and control compound were at 1 μM. The multi-well insert plate was incubated at 37° C. for 2 hours.

BCRP = BCRP (Homo sapiens (Human), UniProt Q9UNQ0); test: Caco-2 BCRP assessment; format: in vitro ADME; details: Caco-2 cells, 1 μM, efflux ratio -/+ novobiocin 30 μM; >2 = BCRP substrate
Procedure: Assay d): Caco-2 BCRP Assessment
Caco-2 cells were used to study efflux transport mediated by BCRP. Rate of drug transport by BCRP was determined in the presence and absence of novobiocin, a strong inhibitor of BCRP, which was added to both apical and basolateral compartment sat a final concentration of 30 μM. The final concentrations of test compounds and control compound were at 1 μM. The multi-well insert plate was incubated at 37° C. for 2 hours. Efflux ratio (−inhibitor/+inhibitor)>2 was considered to be a BCRP substrate.

hERG channel = hERG channel (Homo sapiens (Human), UniProt Q12809); test: hERG inhibition, manual patch clamp in HEK 293 cells; format: cell-based; details: for IC50: HEK 293 cell line stably expressing hERG channel, manual patch clamp
Procedure: Assay f): hERG Inhibition Inhibition of hERG channel was conducted in HEK 293 cell line stably expressing hERG channel by manual patch clamp.

[1] = Mouse SOA study for brain penetration; format: in vivo; details: for Mouse Kpu, u: male balb/c mice, oral 10 mg/kg, AUC 0-7 hr brain/plasma, unbound; for brain penetration in vivo: mouse SOA study, conclusion from Table 3
Procedure: Assay e) Mouse SOA Study for Brain Penetration
Six non-fasted male balb/c mice (6-8 weeks, 20-25 g) were orally administered at 10 mg/kg, using a suspension formulation of 1% methylcellulose (MC) in deionized water. Brain and blood samples were collected at 0.25, 0.5, 1, 2, 4, 7 hours after dose. Plasma was obtained by centrifuging the blood samples for 5 min at 4000 g and 4° C. Brain tissue was homogenized following addition of four times the volume of phosphate-buffered saline (pH 7.4). Quantification of the compound in plasma and brain was undertaken by LC-MS/MS. Area under the curve (AUC) was determined from 0 to 7 hours in the brain tissue and plasma.
Total brain to plasma concentration ratio Kp was determined using the equation: Brain Kp=AUC0-7 hr brain/AUC0-7 hr plasma
Unbound brain to plasma ratio was determined using the equation: Brain Kp,uu=Kp*fu,brain/fu,plasma
Unbound fraction (fu, plasma) and unbound fraction (fu, brain) were obtained from in vitro equilibrium dialysis by using plasma and brain homogenate, respectively.

Sequence of wt-EGFR (P00533 25-1210): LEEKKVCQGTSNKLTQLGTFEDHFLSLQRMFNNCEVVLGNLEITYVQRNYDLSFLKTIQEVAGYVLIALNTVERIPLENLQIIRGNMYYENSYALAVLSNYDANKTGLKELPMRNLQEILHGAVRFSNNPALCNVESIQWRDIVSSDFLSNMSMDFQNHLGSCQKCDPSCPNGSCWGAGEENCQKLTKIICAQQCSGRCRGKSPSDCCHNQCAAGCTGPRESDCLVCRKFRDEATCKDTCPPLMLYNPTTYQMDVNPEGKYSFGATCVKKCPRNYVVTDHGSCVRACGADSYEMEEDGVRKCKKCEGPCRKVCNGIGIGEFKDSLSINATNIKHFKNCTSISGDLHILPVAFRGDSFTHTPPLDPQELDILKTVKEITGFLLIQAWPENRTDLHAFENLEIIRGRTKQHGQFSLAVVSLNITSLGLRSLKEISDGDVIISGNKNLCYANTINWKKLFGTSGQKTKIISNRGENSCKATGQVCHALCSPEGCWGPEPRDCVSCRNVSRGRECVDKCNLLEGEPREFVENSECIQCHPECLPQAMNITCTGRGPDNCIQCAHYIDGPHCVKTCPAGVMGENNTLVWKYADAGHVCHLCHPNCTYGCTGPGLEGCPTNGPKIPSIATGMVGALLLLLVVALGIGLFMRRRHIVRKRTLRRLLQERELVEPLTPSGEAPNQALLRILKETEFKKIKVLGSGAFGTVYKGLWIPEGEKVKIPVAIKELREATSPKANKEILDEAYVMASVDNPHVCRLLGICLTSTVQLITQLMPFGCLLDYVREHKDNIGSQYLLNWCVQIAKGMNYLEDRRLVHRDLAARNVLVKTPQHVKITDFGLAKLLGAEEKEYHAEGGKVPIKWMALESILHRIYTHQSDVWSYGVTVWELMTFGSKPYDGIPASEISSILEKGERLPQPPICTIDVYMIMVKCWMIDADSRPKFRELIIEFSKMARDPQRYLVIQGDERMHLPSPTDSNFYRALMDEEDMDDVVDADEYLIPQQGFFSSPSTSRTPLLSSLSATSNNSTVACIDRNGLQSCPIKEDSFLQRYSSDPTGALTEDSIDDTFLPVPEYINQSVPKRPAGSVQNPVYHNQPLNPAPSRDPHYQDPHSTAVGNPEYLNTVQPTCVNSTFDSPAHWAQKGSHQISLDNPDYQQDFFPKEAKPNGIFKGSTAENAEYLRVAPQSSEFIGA
Sequence of BCRP (Q9UNQ0 whole entry): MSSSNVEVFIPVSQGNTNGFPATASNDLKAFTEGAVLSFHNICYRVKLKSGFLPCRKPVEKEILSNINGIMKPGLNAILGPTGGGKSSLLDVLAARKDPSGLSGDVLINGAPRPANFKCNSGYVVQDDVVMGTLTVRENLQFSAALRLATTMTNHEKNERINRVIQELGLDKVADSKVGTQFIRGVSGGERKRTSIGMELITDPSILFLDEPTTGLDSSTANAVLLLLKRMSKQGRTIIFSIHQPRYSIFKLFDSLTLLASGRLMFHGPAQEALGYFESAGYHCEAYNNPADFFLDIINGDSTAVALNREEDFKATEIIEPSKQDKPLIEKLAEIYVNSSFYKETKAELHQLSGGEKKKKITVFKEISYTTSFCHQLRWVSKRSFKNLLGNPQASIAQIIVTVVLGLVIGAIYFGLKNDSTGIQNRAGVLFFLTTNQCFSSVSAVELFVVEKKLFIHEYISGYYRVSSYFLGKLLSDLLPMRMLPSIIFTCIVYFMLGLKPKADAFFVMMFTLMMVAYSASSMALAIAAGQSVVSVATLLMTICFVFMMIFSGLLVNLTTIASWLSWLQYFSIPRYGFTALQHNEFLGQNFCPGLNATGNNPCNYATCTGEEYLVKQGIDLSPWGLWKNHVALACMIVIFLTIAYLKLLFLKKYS
Sequence of P-glycoprotein (Pgp) (P08183 whole entry): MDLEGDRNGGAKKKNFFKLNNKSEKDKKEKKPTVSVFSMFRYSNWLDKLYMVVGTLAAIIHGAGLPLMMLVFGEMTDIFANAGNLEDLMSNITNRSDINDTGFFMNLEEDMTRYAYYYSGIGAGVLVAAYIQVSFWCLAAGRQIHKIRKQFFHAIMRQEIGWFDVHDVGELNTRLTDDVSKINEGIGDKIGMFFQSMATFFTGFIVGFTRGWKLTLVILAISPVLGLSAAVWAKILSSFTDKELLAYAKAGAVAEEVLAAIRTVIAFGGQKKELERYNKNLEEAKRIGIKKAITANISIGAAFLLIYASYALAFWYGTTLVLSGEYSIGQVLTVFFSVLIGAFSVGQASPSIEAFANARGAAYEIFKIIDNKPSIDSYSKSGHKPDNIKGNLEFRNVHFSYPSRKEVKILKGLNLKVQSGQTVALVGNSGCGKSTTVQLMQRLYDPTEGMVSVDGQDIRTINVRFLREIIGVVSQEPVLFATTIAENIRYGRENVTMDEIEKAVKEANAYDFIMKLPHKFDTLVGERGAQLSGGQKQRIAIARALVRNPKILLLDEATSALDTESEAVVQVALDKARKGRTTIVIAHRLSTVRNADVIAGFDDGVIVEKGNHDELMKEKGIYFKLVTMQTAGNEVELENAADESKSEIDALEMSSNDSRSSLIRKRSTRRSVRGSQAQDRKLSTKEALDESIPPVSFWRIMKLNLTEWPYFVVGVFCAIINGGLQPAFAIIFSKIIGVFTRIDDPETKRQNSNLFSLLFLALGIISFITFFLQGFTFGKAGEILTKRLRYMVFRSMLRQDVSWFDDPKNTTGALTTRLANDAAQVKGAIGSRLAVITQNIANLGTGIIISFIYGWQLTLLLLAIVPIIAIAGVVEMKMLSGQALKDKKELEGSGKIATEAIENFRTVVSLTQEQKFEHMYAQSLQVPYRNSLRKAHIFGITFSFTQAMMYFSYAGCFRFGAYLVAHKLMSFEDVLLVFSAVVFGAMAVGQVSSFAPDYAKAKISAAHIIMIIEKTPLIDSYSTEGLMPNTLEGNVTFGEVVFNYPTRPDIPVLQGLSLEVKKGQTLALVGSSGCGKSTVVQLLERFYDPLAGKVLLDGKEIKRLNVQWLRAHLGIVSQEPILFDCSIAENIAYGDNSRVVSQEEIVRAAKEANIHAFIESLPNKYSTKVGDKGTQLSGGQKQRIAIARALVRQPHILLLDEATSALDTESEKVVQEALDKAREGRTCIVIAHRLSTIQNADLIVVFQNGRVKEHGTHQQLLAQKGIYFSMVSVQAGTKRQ
Sequence of hERG channel (Q12809 whole entry): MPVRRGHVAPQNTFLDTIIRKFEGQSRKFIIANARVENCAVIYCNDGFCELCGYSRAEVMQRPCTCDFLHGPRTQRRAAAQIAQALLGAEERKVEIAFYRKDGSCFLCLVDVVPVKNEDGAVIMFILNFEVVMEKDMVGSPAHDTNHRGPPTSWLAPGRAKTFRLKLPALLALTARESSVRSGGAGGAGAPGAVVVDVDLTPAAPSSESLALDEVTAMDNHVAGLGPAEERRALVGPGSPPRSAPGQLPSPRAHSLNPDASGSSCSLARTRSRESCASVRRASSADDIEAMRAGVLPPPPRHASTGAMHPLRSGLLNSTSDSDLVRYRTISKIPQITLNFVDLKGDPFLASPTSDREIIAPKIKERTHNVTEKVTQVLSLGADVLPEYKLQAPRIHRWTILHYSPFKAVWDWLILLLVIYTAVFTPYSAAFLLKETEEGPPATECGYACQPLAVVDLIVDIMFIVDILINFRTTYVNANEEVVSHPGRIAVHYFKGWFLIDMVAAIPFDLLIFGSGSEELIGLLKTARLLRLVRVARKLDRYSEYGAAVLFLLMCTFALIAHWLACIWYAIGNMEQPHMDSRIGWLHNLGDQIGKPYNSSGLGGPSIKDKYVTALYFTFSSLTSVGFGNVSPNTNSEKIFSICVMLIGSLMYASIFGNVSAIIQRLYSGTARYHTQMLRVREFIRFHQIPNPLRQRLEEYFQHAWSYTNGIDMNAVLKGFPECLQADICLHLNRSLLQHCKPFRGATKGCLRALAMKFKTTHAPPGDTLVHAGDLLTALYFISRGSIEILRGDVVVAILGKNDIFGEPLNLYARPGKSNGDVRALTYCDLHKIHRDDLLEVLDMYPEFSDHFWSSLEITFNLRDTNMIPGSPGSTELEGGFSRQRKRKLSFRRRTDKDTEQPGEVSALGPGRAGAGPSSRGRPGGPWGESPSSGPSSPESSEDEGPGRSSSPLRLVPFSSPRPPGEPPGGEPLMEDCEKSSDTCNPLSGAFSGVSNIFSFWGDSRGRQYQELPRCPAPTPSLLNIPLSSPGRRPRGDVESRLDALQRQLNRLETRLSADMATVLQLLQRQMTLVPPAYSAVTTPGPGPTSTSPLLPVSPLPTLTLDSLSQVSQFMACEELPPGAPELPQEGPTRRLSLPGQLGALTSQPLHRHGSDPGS

SMILES	IC50 (HER2) [nM]	IC50 (wt-EGFR) [nM]	efflux ratio at 2 h, 1 μM (P-glycoprotein (Pgp))	BCRP ER (BCRP)	IC50 (hERG channel) [nM]	hERG liability (hERG channel; conclusion from Table 3)	Pgp substrate status (P-glycoprotein (Pgp))	Mouse Kpu, u [1]	brain penetration in vivo [1]
COc1ccc2ncnc(Nc3ccc(Oc4cc5ncnn5cn4)c(C)c3)c2c1N1C[C@@H]2[C@H]1CCN2C [Example 46, N-(4-([1,2,4]triazolo[1,5-c]pyrimidin-7-yloxy)-3-methylphenyl)-6-methoxy-5-((1R,5R)-2-methyl-2,6-diazabicyclo[3.2.0]heptan-6-yl)quinazolin-4-amine]	7.3	215	–	–	–	–	–	–	–
COc1cc(O[C@H]2CCN(C)CC2(F)F)c2c(Nc3ccc(Oc4cc5ncnn5cn4)c(C)c3)ncnc2c1 [Example 51, (S)—N-(4-([1,2,4]triazolo[1,5-c]pyrimidin-7-yloxy)-3-methylphenyl)-5-((3,3-difluoro-1-methylpiperidin-4-yl)oxy)-7-methoxyquinazolin-4-amine]	176	183	–	–	–	–	–	–	–
COc1cc(O[C@@H]2CCN(C)CC2(F)F)c2c(Nc3ccc(Oc4cc5ncnn5cn4)c(C)c3)ncnc2c1 [Example 52, (R)—N-(4-([1,2,4]triazolo[1,5-c]pyrimidin-7-yloxy)-3-methylphenyl)-5-((3,3-difluoro-1-methylpiperidin-4-yl)oxy)-7-methoxyquinazolin-4-amine]	182	800	–	–	–	–	–	–	–
Cc1cc(Nc2ncnc3ccc(NC4=NC(C)(C)CO4)c(N4CC(N(C)C)C4)c23)ccc1Oc1cc2ncnn2cn1 [Example 54, N4-(4-([1,2,4]triazolo[1,5-c]pyrimidin-7-yloxy)-3-methylphenyl)-N6-(4,4-dimethyl-4,5-dihydrooxazol-2-yl)-5-(3-(dimethylamino)azetidin-1-yl)quinazoline-4,6-diamine]	190	> 10000	–	–	–	–	–	–	–
Cc1cc(Nc2ncnc3cccc(N4CC5(CN(C)CCO5)C4)c23)ccc1Oc1cc2ncnn2cn1 [Example 55, N-(4-([1,2,4]triazolo[1,5-c]pyrimidin-7-yloxy)-3-methylphenyl)-5-(8-methyl-5-oxa-2,8-diazaspiro[3.5]nonan-2-yl)quinazolin-4-amine]	912	> 10000	–	–	–	–	–	–	–
CN1CCC(Oc2cccc3ncnc(Nc4ccc(NCc5ccccn5)c(Cl)c4)c23)CC1 [Reference compound 1, 2-chloro-N^4-(5-((1-methylpiperidin-4-yl)oxy)quinazolin-4-yl)-N^1-(pyridin-2-ylmethyl)benzene-1,4-diamine, reference compound]	–	–	0.57	1.1	< 2000	strong hERG inhibitor	–	–	–
CCOc1cc2ncc(C#N)c(Nc3ccc(OCc4ccccn4)c(Cl)c3)c2cc1NC(=O)/C=C/CN(C)C [Reference compound 2, Neratinib, reference compound]	–	–	> 18.6	1.4	> 10000	–	strong Pgp substrates	too low to calculate	not brain penetrable in vivo
Cc1cc(Nc2ncnc3ccc(NC4=NC(C)(C)CO4)cc23)ccc1Oc1ccn2ncnc2c1 [Reference compound 3, N4-(4-([1,2,4]triazolo[1,5-a]pyridin-7-yloxy)-3-methylphenyl)-N6-(4,4-dimethyl-4,5-dihydrooxazol-2-yl)quinazoline-4,6-diamine, reference compound]	–	–	23.8	2.1	> 10000	–	strong Pgp substrates	too low to calculate	not brain penetrable in vivo
